Earlier results on 1 molecule are cited in US9937198B2, “Multi-functional composition and preparation method and application thereof” (Suzhou Sciscape Bio-Pharmaceutical Technology Co., Ltd., priority 2013, dated 2018).

In one data set the test system is rats. The conditions noted are these: cited from earlier work.
For data set [1] the following is noted: pure validamycin A; cited from earlier work.
Data set [2] relates to bees and other beneficial insects. The conditions noted are these: in vivo; cited from earlier work.

For the molecule `OCC1=C[C@@H](N[C@H]2C[C@H](CO)[C@@H](O[C@H]3O[C@@H](CO)[C@H](O)[C@@H](O)[C@@H]3O)[C@H](O)[C@H]2O)[C@H](O)[C@@H](O)[C@@H]1O` [Validamycin A, validamycin A], in the data set on rats, the “acute oral toxicity (LD50) in rats” value was “above 20 g/kg”. Besides, the solubility in water entry in data set [1] is listed as “soluble in water”. The “toxicity to bees and other beneficial insects” value in data set [2] is listed as “no toxicity”.
